Measured values from US6906205B2, “Spiro and dispiro 1,2,4-trioxolane antimalarials” (Medicines for Malaria Venture MMV, priority 2002, dated 2005).
Values after ≈ are worked out from the molar mass of the structure shown.

Assays:
[1] = tested on: P. falciparum NF54 strain (sensitive to standard antimalarials); experiment: semiautomated microdilution assay, [3H]-hypoxanthine incorporation, NF54 strain; format: cell-based, Plasmodium falciparum; conditions: NF54 strain, 72 h incubation
How it was run: (§1)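 Compounds were tested against intraerythrocytic parasites taken from asynchronous stock cultures, using semiautomated microdilution. IC50 values were estimated by logit regression analysis.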

[2] = tested on: P. falciparum K1 strain (Thailand resistant to chloroquine); experiment: semiautomated microdilution assay, [3H]-hypoxanthine incorporation, K1 strain; format: cell-based, Plasmodium falciparum; conditions: K1 strain, 72 h incubation
How it was run: as §1

[3] = tested on: ANKA strain of P. berghei; experiment: single dose STI in vivo screen in infected mice; design: species or system Plasmodium berghei; conditions: for Activity (%) po / Activity (%) sc / Activity (%) SSVpo / Activity (%) 3 mg/kg SSV po / Activity (%) 10 mg/kg SSV po: percent reduction in parasitemia day 3 post-infection; for Activity (%) po / Survival (days) po: single 10 mg/kg po in 3% ethanol and 7% Tween 80; for Activity (%) po / Activity (%) sc / Activity (%) SSVpo: mice; for Activity (%) sc / Survival (days) sc: single 10 mg/kg sc in 3% ethanol and 7% Tween 80; for Survival (days) po / Survival (days) sc / Survival (days) SSVpo: untreated control 5.6 ± 0.3; for Activity (%) SSVpo: single po dose in standard suspending vehicle (SSV); for Survival (days) SSVpo: single po dose in SSV; for Activity (%) 3 mg/kg SSV po: single 3 mg/kg po in SSV; for Activity (%) 10 mg/kg SSV po / Survival (days) 10 mg/kg SSV po: single 10 mg/kg po in SSV
How it was run: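 Groups of 3-5 Moro SPF or NMRI mice infected with the ANKA strain of P. berghei received a single dose of trioxolane on day one post-infection. The compound was given in 3% ethanol and 7% Tween 80 or in SSV (0.5% w/v CMC, 0.5% v/v benzyl alcohol, 0.4% v/v Tween 80, 0.9% w/v sodium chloride in water). Antimalarial activity was scored as percent reduction in parasitemia on day three and as survival time versus untreated controls. Survival to day 30 counted as cure.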

O=C(O)CON=C1CCC2(CC1)OOC1(O2)C2CC3CC(C2)CC1C3 (stereo not shown) [OZ54]
IC50 (ng/ml) NF54 [1]: 35 ng/mL (≈ 99.6 nM) | IC50 (ng/ml) K1 [2]: 32 ng/mL (≈ 91.1 nM) | Activity (%) po [3]: 85% | Activity (%) sc [3]: 97% | Survival (days) po [3]: 7.0/NA/7.0 days | Survival (days) sc [3]: 7.0/NA/7.0 days

NCC1(c2ccccc2)CCC2(CC1)OOC1(O2)C2CC3CC(C2)CC1C3 (stereo not shown) [OZ117]
IC50 (ng/ml) NF54 [1]: 1.2 ng/mL (≈ 3.25 nM) | IC50 (ng/ml) K1 [2]: 2.1 ng/mL (≈ 5.68 nM) | Activity (%) po [3]: 95% | Activity (%) sc [3]: 99.94% | Activity (%) SSVpo [3]: 96% | Survival (days) po [3]: 7.0 days | Survival (days) sc [3]: 8.7 days | Survival (days) SSVpo [3]: 7.7 days

C1C2CC3CC1CC(C2)C31OO[C@]2(CC[C@@H](CN(C[C@H]3CC[C@]4(CC3)OOC3(O4)C4CC5CC(C4)CC3C5)C3CC3)CC2)O1 (stereo partly shown) [OZ254]
IC50 (ng/ml) NF54 [1]: 57 ng/mL (≈ 93.5 nM) | IC50 (ng/ml) K1 [2]: > 100 ng/mL | Activity (%) po [3]: 27% | Activity (%) sc [3]: 2% | Activity (%) SSVpo [3]: 11% | Survival (days) po [3]: 6.0 days | Survival (days) sc [3]: 5.7 days | Survival (days) SSVpo [3]: 5.7 days

CN(C)C(=O)NC[C@H]1CC[C@]2(CC1)OOC1(O2)C2CC3CC(C2)CC1C3 (stereo partly shown) [OZ266]
IC50 (ng/ml) NF54 [1]: 1.5 ng/mL (≈ 4.12 nM) | IC50 (ng/ml) K1 [2]: 1.1 ng/mL (≈ 3.02 nM) | Activity (%) po [3]: 99% | Activity (%) sc [3]: 99.75% | Activity (%) SSVpo [3]: 99.39% | Survival (days) po [3]: 13.7 days | Survival (days) sc [3]: 11.7 days | Survival (days) SSVpo [3]: 11.7 days

O=C1CCC2(CC1)OOC1(CCCCC1)O2 [OZ02]
IC50 (ng/ml) NF54 [1]: 94 ng/mL (≈ 415 nM) | IC50 (ng/ml) K1 [2]: > 100 ng/mL | Activity (%) po [3]: 0/NA/0^1% | Activity (%) sc [3]: 0/NA/0^1% | Survival (days) po [3]: 5.0/NA/5.0^1 days | Survival (days) sc [3]: 5.0/NA/5.0^1 days

N#CC1(c2ccc(Cl)c(Cl)c2)CCC2(CC1)OOC1(O2)C2CC3CC(C2)CC1C3 (stereo not shown) [OZ75]
IC50 (ng/ml) NF54 [1]: 4.3 ng/mL (≈ 9.9 nM) | IC50 (ng/ml) K1 [2]: 2.4 ng/mL (≈ 5.53 nM) | Activity (%) po [3]: 77% | Activity (%) sc [3]: 5% | Survival (days) po [3]: 7.3 days | Survival (days) sc [3]: 5.0 days

C1CCC2(CC1)OOC1(CCC3(CC1)OOC1(CCCCC1)O3)O2 (stereo not shown) [OZ09]
IC50 (ng/ml) NF54 [1]: 39 ng/mL (≈ 115 nM) | IC50 (ng/ml) K1 [2]: 32 ng/mL (≈ 94 nM) | Activity (%) po [3]: 0% | Activity (%) sc [3]: 81% | Survival (days) po [3]: 5.0 days | Survival (days) sc [3]: 6.3 days

COC(=O)c1ccc(C2(c3ccccc3)OOC3(O2)C2CC4CC(C2)CC3C4)cc1 (stereo not shown) [OZ138]
IC50 (ng/ml) NF54 [1]: 19 ng/mL (≈ 46.7 nM) | IC50 (ng/ml) K1 [2]: 10 ng/mL (≈ 24.6 nM) | Activity (%) po [3]: 0% | Activity (%) sc [3]: 7% | Activity (%) SSVpo [3]: 5% | Survival (days) po [3]: 5.7 days | Survival (days) sc [3]: 6.3 days | Survival (days) SSVpo [3]: 6.3 days

NC(=O)CN(CC(N)=O)C[C@H]1CC[C@]2(CC1)OOC1(O2)C2CC3CC(C2)CC1C3 (stereo partly shown) [OZ236]
IC50 (ng/ml) NF54 [1]: 2.0/2.0 ng/ml | IC50 (ng/ml) K1 [2]: 2.0/2.0 ng/ml | Activity (%) po [3]: 89% | Activity (%) sc [3]: 98.61% | Activity (%) SSVpo [3]: 86% | Survival (days) po [3]: 6.3 days | Survival (days) sc [3]: 7.7 days | Survival (days) SSVpo [3]: 7.7 days

O=C(O)c1cncn1C[C@H]1CC[C@]2(CC1)OOC1(O2)C2CC3CC(C2)CC1C3 (stereo partly shown) [OZ231]
IC50 (ng/ml) NF54 [1]: >10/>10 ng/ml | IC50 (ng/ml) K1 [2]: >10/>10 ng/ml | Activity (%) po [3]: 0/0/0% | Activity (%) sc [3]: 0/0/0% | Activity (%) SSVpo [3]: 0/0/0% | Survival (days) po [3]: 5.3 days | Survival (days) sc [3]: 6.0 days | Survival (days) SSVpo [3]: 5.7 days

COC1(c2ccc(F)cc2)CCC2(CC1)OOC1(O2)C2CC3CC(C2)CC1C3 (stereo not shown) [OZ77]
IC50 (ng/ml) NF54 [1]: 2.2 ng/mL (≈ 5.66 nM) | IC50 (ng/ml) K1 [2]: 1.4 ng/mL (≈ 3.6 nM) | Activity (%) po [3]: 99.9% | Activity (%) sc [3]: 98% | Activity (%) SSVpo [3]: 74% | Survival (days) po [3]: 9.0 days | Survival (days) sc [3]: 8.3 days | Survival (days) SSVpo [3]: 6.0 days

O=C(OCCC1CCC2(CC1)OOC1(O2)C2CC3CC(C2)CC1C3)c1ccc([N+](=O)[O-])cc1 (stereo not shown) [OZ88]
IC50 (ng/ml) NF54 [1]: 4.2 ng/mL (≈ 9.18 nM) | IC50 (ng/ml) K1 [2]: 5.7 ng/mL (≈ 12.5 nM) | Activity (%) po [3]: 62% | Activity (%) sc [3]: 99.1% | Survival (days) po [3]: 6.0 days | Survival (days) sc [3]: 11.7 days

CC(=O)OCC(=O)N1CCC2(CC1)OOC1(O2)C2CC3CC(C2)CC1C3 (stereo not shown) [OZ82]
IC50 (ng/ml) NF54 [1]: 1.2 ng/mL (≈ 3.28 nM) | IC50 (ng/ml) K1 [2]: 0.48 ng/mL (≈ 1.31 nM) | Activity (%) po [3]: 91% | Activity (%) sc [3]: 79% | Survival (days) po [3]: 7.3 days | Survival (days) sc [3]: 7.0 days

NNC(=O)C[C@H]1CC[C@]2(CC1)OO[C@]1(O2)C2CC3CC(C2)CC1C3 [OZ340]
IC50 (ng/ml) NF54 [1]: 2.9 ng/mL (≈ 8.62 nM) | IC50 (ng/ml) K1 [2]: 4.9 ng/mL (≈ 14.6 nM) | Activity (%) 3 mg/kg SSV po [3]: 36% | Activity (%) 10 mg/kg SSV po [3]: 93% | Survival (days) 10 mg/kg SSV po [3]: 9.2 days

O=C(NC[C@H]1CC[C@]2(CC1)OOC1(O2)C2CC3CC(C2)CC1C3)c1ccccc1C(=O)NC[C@H]1CC[C@]2(CC1)OOC1(O2)C2CC3CC(C2)CC1C3 (stereo partly shown) [OZ230]
IC50 (ng/ml) NF54 [1]: 3.6 ng/mL (≈ 5.02 nM) | IC50 (ng/ml) K1 [2]: 3.9 ng/mL (≈ 5.44 nM) | Activity (%) po [3]: 0/0/0% | Activity (%) sc [3]: 0/0/0% | Activity (%) SSVpo [3]: 0/0/0% | Survival (days) po [3]: 5.3 days | Survival (days) sc [3]: 5.7 days | Survival (days) SSVpo [3]: 5.7 days

COCC(=O)N(C1CCCCC1)C1CCC2(CC1)OOC1(O2)C2CC3CC(C2)CC1C3 (stereo not shown) [OZ174]
IC50 (ng/ml) NF54 [1]: 34 ng/mL (≈ 78.4 nM) | IC50 (ng/ml) K1 [2]: 27 ng/mL (≈ 62.3 nM) | Activity (%) po [3]: 0% | Activity (%) sc [3]: 90% | Activity (%) SSVpo [3]: 15% | Survival (days) po [3]: 6.7 days | Survival (days) sc [3]: 10.3 days | Survival (days) SSVpo [3]: 7.3 days

OCC1(CO)COC2(CCC3(CC2)OOC2(O3)C3CC4CC(C3)CC2C4)OC1 (stereo not shown) [OZ121]
IC50 (ng/ml) NF54 [1]: 0.41 ng/mL (≈ 1.03 nM) | IC50 (ng/ml) K1 [2]: 0.96 ng/mL (≈ 2.42 nM) | Activity (%) po [3]: 91% | Activity (%) sc [3]: 99.61% | Activity (%) SSVpo [3]: 98% | Survival (days) po [3]: 7.3 days | Survival (days) sc [3]: 7.3 days | Survival (days) SSVpo [3]: 8.0 days

C1C2CC3CC1CC(C2)C31OOC2(CCC(NC3CC3)CC2)O1 (stereo not shown) [OZ185]
IC50 (ng/ml) NF54 [1]: 1.4 ng/mL (≈ 4.38 nM) | IC50 (ng/ml) K1 [2]: 1.1 ng/mL (≈ 3.44 nM) | Activity (%) po [3]: 86% | Activity (%) sc [3]: 99.96% | Activity (%) SSVpo [3]: 56% | Survival (days) po [3]: 7.7 days | Survival (days) sc [3]: 10.7 days | Survival (days) SSVpo [3]: 6.7 days

O=C(O)c1nccnc1C(=O)N1CCC2(CC1)OOC1(O2)C2CC3CC(C2)CC1C3 (stereo not shown) [OZ109]
IC50 (ng/ml) NF54 [1]: 24 ng/mL (≈ 57.8 nM) | IC50 (ng/ml) K1 [2]: 21 ng/mL (≈ 50.5 nM) | Activity (%) po [3]: 2% | Activity (%) sc [3]: 24% | Activity (%) SSVpo [3]: 0% | Survival (days) po [3]: 5.7 days | Survival (days) sc [3]: 6.3 days | Survival (days) SSVpo [3]: 5.7 days

CS(=O)(=O)C[C@H]1CC[C@]2(CC1)OO[C@]1(O2)C2CC3CC(C2)CC1C3 [OZ307]
IC50 (ng/ml) NF54 [1]: 0.88 ng/mL (≈ 2.47 nM) | IC50 (ng/ml) K1 [2]: 0.62 ng/mL (≈ 1.74 nM) | Activity (%) 3 mg/kg SSV po [3]: 74% | Activity (%) 10 mg/kg SSV po [3]: 98% | Survival (days) 10 mg/kg SSV po [3]: 9.4 days
